Laboratory results from US20120207729A1, “SUBSTITUTED BENZOAZOLE PDE4 INHIBITORS FOR TREATING PULMONARY AND CARDIOVASCULAR DISORDERS” (DECODE GENETICS EHF, priority 2007, published 2012).

What was measured:
human PDE4D = human PDE4D (Homo sapiens, UniProt Q08499); assay: In-vitro real-time enzyme-coupled spectrophotometric assay for PDE4 enzymes; assay type: biochemical; conditions: NADH-coupled assay, absorbance at 340 nm, read-out: IC50 for human PDE4D isozyme
Procedure: (§1) In-vitro assay for PDE4 enzymes. The in-vitro activity of PDE4 enzymes and the in-vitro potency of therapeutic agents described in the present invention was measured using a real-time, enzyme-coupled spectrophotometric assay. By using three different coupling enzymes, the product of the PDE4 reaction is coupled to the oxidation of the reduced form β-nicotinamide adenine dinucleotide (NADH), which dissipation can be monitored spectrophotmetrically at […].
(§2) Assay description. Buffer A containing 50 mM Tris, pH 8.0, 16 mM MgCl2 and 80 mM KCl is prepared and stored at room temperature. Buffer B containing 50 mM Tris, pH 8.0 is prepared and stored at room temperature. Stock solutions of the following reagents are prepared in Buffer B and stored at −20° C.: Adenosine-5′-triphosphate (ATP), cyclic adenosine-5′-monophosphate (cAMP), phosphoenolpyruvate (PEP) and NADH. An assay mix is prepared by mixing Buffer A, […] (TCEP), ATP, PEP, NADH, myokinase (MK), pyruvate kinase (PK), lactate dehydroganese (LDH) and PDE4 to a final volume of 20 mL, which is enough for a single 96-well assay plate. Assay mix (180 μL) and test article (10 μL) in 1:1 DMSO/H2O mixture is pre-incubated at room temperature for 10 min. The enzymatic reaction is initiated by addition of cAMP (10 μL). Final concentration of all components in the assay (200 μL/well) are as follows: 10 mM MgCl2, 50 mM KCl, 5 mM TCEP, 2.5% DMSO, 0.4 mM NADH, 1 mM PEP, 0.04 mM ATP, 5 units MK, 1 unit PK, 1 unit LDH and appropriate amount of PDE4. Reaction progress curves are monitored in a plate reader capable of measuring light absorbance at 340 nm. A decrease in light absorbance at 340 nm is due to oxidation of NADH. Positive controls containing no test article and negative controls containing no test article and no cAMP are included on every assay plate. Reaction rates are determined from the slopes of the linear portions of the progress curves. All data is percent normalized with respect to controls and presented as percent inhibition. Compounds BB-01, BB-02, BB-03, BB-04, BB-05, BB-08, BB-09 gave IC50<5 uM for human PDE4D and PDE4B isozymes.

human PDE4B = human PDE4B (Homo sapiens, UniProt Q07343); assay: as above; assay type: biochemical; conditions: NADH-coupled assay, absorbance at 340 nm, read-out: IC50 for human PDE4B isozyme
Procedure: as §1, §2

human PDE4B, sequence (Q07343 whole entry): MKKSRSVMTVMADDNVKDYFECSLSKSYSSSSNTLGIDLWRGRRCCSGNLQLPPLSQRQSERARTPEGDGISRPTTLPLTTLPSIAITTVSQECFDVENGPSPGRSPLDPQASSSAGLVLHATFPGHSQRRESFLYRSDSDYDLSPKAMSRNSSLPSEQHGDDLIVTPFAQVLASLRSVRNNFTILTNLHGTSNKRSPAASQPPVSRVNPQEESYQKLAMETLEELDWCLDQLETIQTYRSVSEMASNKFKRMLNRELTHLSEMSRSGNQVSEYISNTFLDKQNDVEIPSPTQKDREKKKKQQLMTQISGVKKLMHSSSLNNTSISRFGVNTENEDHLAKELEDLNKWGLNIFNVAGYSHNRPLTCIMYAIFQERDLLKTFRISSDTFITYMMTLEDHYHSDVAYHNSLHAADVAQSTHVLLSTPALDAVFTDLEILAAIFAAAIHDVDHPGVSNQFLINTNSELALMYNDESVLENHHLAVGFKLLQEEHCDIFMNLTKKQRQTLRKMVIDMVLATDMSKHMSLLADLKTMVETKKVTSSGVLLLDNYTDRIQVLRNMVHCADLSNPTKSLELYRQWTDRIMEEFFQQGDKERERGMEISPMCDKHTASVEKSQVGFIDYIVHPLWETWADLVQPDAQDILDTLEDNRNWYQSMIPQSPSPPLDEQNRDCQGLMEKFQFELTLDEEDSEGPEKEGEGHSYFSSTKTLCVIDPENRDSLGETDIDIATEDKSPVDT
human PDE4D, sequence (Q08499 whole entry): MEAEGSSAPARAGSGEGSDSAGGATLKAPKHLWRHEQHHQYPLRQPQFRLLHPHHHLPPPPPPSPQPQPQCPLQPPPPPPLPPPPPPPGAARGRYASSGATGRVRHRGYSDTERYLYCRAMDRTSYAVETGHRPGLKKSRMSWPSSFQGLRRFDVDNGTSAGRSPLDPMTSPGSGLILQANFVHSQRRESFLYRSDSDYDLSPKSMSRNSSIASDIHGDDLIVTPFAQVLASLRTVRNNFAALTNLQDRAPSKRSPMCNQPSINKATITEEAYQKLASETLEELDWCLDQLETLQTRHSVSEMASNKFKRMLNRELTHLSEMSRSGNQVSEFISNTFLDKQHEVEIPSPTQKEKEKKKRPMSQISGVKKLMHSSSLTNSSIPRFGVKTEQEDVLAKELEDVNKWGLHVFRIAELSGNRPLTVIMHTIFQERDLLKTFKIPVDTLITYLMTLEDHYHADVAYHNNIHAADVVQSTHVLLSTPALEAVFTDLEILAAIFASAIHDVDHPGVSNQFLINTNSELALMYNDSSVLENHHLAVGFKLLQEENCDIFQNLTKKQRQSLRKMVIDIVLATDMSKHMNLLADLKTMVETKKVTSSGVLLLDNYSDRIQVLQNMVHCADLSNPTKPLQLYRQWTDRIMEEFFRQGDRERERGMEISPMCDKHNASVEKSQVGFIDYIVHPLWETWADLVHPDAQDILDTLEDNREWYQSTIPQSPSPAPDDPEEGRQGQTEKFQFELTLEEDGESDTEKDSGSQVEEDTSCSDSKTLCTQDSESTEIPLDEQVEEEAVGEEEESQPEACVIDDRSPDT

IC50 (human PDE4D) | IC50 (human PDE4B) | Compound
< 5 µM | < 5 µM | O=C(O)[C@@H]1CCCN1c1ccc(Cc2cc3scnc3c(-c3cccc(Cl)c3)c2F)cn1 [BB-03, (S)-1-{5-[4-(3-chloro-phenyl)-5-fluoro-benzothiazol-6-ylmethyl]-pyridin-2-yl}-pyrrolidine-2-carboxylic acid]
< 5 µM | < 5 µM | O=C(O)[C@@H]1CCN1c1ccc(Cc2cc3scnc3c(-c3cccc(Cl)c3)c2F)cn1 [BB-04, (S)-1-{5-[4-(3-chloro-phenyl)-5-fluoro-benzothiazol-6-ylmethyl]-pyridin-2-yl}-azetidine-2-carboxylic acid]
< 5 µM | < 5 µM | O=C(O)C1CCN1c1ccc(Cc2cc3scnc3c(-c3cccc(Cl)c3)c2F)cn1 (racemic) [BB-01, 1-{5-[4-(3-chloro-phenyl)-5-fluorobenzothiazol-6-ylmethyl]-pyridin-2-yl}-azetidine-2-carboxylic acid]
< 5 µM | < 5 µM | Cc1nc2c(-c3cccc(Cl)c3)cc(Cc3ccc(N4CC[C@@H]4C(=O)O)nc3)cc2s1 [BB-09, (R)-1-{5-[4-(3-chloro-phenyl)-2-methyl-benzothiazol-6-ylmethyl]-pyridin-2-yl}-azetidine-2-carboxylic acid]
< 5 µM | < 5 µM | Cc1nc2c(-c3cccc(Cl)c3)cc(Cc3ccc(N4CC[C@H]4C(=O)O)nc3)cc2s1 [BB-08, (S)-1-{5-[4-(3-chloro-phenyl)-2-methyl-benzothiazol-6-ylmethyl]-pyridin-2-yl}-azetidine-2-carboxylic acid]
< 5 µM | < 5 µM | O=C(O)[C@H]1CCN1c1ccc(Cc2cc3scnc3c(-c3cccc(Cl)c3)c2F)cn1 [BB-05, (R)-1-{5-[4-(3-chloro-phenyl)-5-fluoro-benzothiazol-6-ylmethyl]-pyridin-2-yl}-azetidine-2-carboxylic acid]
